Reference: patent US20260232619A1, “TREATMENT OF NEUROLOGICAL DISORDERS WITH ALLICIN AND ANALOGUES THEREOF” (KATHOLIEKE UNIVERSITEIT LEUVEN, priority 2023, published 2026)
“Also recorded” adds a separate entry of the source.

Tests used:
scn1lab−/− larvae [1] = assay: Locomotor activity assessment in zebrafish scn1lab−/− mutant model of Dravet syndrome; type: in vivo, zebrafish (Danio rerio)
Procedure: (§1) FIG. 2. […] (A) Anti-seizure treatment schedule: 3 dpf scn1lab−/− larvae were exposed to the MTC of allicin or VHC control. 2 days later, abnormal locomotor behavior and epileptiform brain activity of treated larvae was analyzed using an automated tracking device (Noldus) and local field potential recordings, respectively. (B) The normalized cumulative duration of activity (%) is represented as mean±SEM. According to the treatment schedule depicted in panel A, anti-seizure effect of allicin was examined in scnLab−/− larvae at 5 dpf (n=22), and compared to VHC treated scnLab−/− larvae (n=24). VHC treated scn1Lab+/+ larvae (n=24) were included as control. (C) The average number of epileptiform events per 10-minute recording is represented as mean±SEM. Treatment schedule depicted in panel A was followed. Accordingly, electrophysiological effect of allicin was examined in scnLab−/− larvae at 5 dpf (n=15), and compared to VHC treated scnLab−/− larvae (n=15). VHC treated scn1Lab+/+ larvae (n=8) were included as control (D) Early treatment schedule: 1 dpf scn1lab−/− larvae were dechorionated and exposed to the MTC of allicin or VHC control. 2 days later, swimming medium of the larvae was replenished with identical concentrations of allicin or VHC, respectively. At 5 dpf, abnormal locomotor behavior and epileptiform brain activity of treated larvae was analyzed using an automated tracking device (Noldus) and local field potential recordings, respectively. (continued on page 6)(continued from page 5) (E) The normalized cumulative duration of activity (%) is represented as mean±SEM. […] At 5 dpf, abnormal locomotor behavior and epileptiform brain activity of treated larvae was analyzed using an automated tracking device (Noldus) and local field potential recordings, respectively. […]
(§2) The mutant larval fish typically develop signs of epilepsy (hyperlocomotor activity, abnormal brain electrical discharges as assessed by Local Field Potential (LFP) measurements) at 4-5 dpf (days post-fertilization). […]

scn1lab−/− larvae [2] = assay: Non-invasive local field potential (LFP) recordings in zebrafish scn1lab−/− mutant model of Dravet syndrome; type: in vivo, zebrafish (Danio rerio)
Procedure: as §1, §2

**Q.** Which results are given for `C=CCS[S@@+]([O-])CC=C` (racemic) [allicin, S-(Prop-2-en-1-yl) prop-2-ene-1-sulfinothioate]?
**A.** abnormal locomotor behavior (hyperlocomotor activity) compared to VHC treated controls (scn1lab−/− larvae [1]; anti-seizure treatment schedule: allicin at MTC from 3 dpf onwards (after seizure onset), measured at 5 dpf (FIG. 2B)): did not demonstrate significant decreases; also recorded: rescue effect is not present; abnormal hyperactive behavior compared to VHC controls (scn1lab−/− larvae [1]; early treatment schedule: dechorionated at 1 dpf, exposed to allicin at MTC for 4 days, measured at 5 dpf (FIG. 2E)): highly significant decreases; typical symptoms of epilepsy: hyperlocomotor activity (scn1lab−/− larvae [1]; exposed during the 0-3 dpf period to non-toxic concentrations, measured at 5 dpf): are not present; epileptiform brain activity compared to VHC treated controls (scn1lab−/− larvae [2]; anti-seizure treatment schedule: allicin at MTC from 3 dpf onwards (after seizure onset), LFP at 5 dpf (FIG. 2C)): did not demonstrate significant decreases; also recorded: rescue effect is not present; epileptiform events (scn1lab−/− larvae [2]; early treatment schedule: dechorionated at 1 dpf, exposed to allicin at MTC for 4 days, LFP at 5 dpf (FIG. 2F)): significantly reduced to similar levels as observed in wild-type and heterozygous siblings; typical symptoms of epilepsy: abnormal brain electrical discharges (scn1lab−/− larvae [2]; exposed during the 0-3 dpf period to non-toxic concentrations, measured at 5 dpf (data not shown)): are not present
